From US20230272012A1, “PEPTIDES AND METHODS OF USE” (REALTA LIFE SCIENCES, INC., priority 2020, published 2023)
“Also recorded” adds a separate entry of the source. Bridge positions count the residues as written; N and C are the ends. Square brackets hold non-standard residues; d marks the D form. Ends that are not written are not given here. Peptide text beside a SMILES is read from it. R8 = C=CCCCCCC[C@@](C)(N)C(=O)O; S5 = C=CCCC[C@](C)(N)C(=O)O; Sar = CNCC(=O)O

How the values were obtained:
[1] = test system: antibody-initiated complement activation (human O sera and AB red blood cells); assay: ABO incompatibility hemolytic assay of complement activity (CH50-type); type: cell-based; details: for inhibition of complement activation in vitro, dose response: human AB red blood cells, human O plasma, increasing amounts of peptide
Outline: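 Type AB human erythrocytes (5.0×10^7) incubated with 15% (final) type O human serum and 0.5 mM peptide in GVBS^++, 1 h at 37 °C. Hemolysis read as supernatant absorbance at 412 nm, expressed as percent of the serum-plus-RBC positive control; means of three independent experiments ±SEM.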

MPO = biological target: T1, MPO (Homo sapiens, UniProt P05164); assay: MPO activity assay (TMB oxidation); type: biochemical; details: for inhibition of MPO peroxidase activity (TMB oxidation), dose response: purified human MPO, increasing amounts of peptide
T1 construct: purchased Lee BioSolutions (Maryland Heights, Mo.)
T1 sequence (P05164 49-745): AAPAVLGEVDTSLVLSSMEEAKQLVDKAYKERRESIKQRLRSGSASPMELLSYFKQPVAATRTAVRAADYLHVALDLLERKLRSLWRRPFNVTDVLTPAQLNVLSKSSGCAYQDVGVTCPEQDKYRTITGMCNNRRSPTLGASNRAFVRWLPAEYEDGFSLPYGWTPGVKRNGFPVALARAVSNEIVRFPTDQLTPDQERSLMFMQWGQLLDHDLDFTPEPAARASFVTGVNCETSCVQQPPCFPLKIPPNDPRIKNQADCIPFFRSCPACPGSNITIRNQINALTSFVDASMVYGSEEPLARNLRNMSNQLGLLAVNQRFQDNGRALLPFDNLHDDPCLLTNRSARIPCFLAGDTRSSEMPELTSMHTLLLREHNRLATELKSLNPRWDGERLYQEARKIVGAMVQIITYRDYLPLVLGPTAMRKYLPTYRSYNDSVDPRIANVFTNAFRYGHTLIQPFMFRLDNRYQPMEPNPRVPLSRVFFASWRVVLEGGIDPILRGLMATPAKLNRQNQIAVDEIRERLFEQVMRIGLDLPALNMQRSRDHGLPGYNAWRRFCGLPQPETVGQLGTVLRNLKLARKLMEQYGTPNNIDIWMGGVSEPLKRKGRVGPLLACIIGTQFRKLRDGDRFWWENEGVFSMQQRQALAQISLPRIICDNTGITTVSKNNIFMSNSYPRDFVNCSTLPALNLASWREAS
Procedure: The MPO activity assay was performed as previously described. Briefly, peptides were diluted to 12 mg/ml and serially titrated in a 96 well plate at a volume of 0.02 ml. MPO was diluted to 20 μg/ml and 0.02 ml was added to the titrated peptides. TMB (3,30,5,50-tetramethylbenzidine) (0.1 ml) was added to each well for 2 minutes, followed by 0.1 ml of 2.5 N H2SO4 for another 2 minutes, and then read on a 96 well plate reader (BioTek) at 450 nm.
The inventors also assessed the ability of RLS-0127* and RLS-0133* to inhibit MPO activity as determined by inhibition of oxidation of TMB in a plate-based assay. […] Additionally, the inventors assessed the ability of RLS-0127* and RLS-0133* to bind C1q in a plate-based assay in which C1q is coated on the plate and increasing amounts of the peptides are added, followed by primary antibody to the peptides and secondary antibody conjugated to HRP. The plate was then incubated with TMB to give a […] signal that is detected at a wavelength of 450 nm in a plate reader.

CTLA-4 = biological target: T2, CTLA-4 (Homo sapiens, UniProt P16410); assay: CTLA-4 Blockade Bioassay (Promega); type: cell-based; design: host or cells: Jurkat T cells (CTLA-4 effector cells); aAPC/Raji cells; details: increasing concentrations
T2 sequence (P16410 36-223): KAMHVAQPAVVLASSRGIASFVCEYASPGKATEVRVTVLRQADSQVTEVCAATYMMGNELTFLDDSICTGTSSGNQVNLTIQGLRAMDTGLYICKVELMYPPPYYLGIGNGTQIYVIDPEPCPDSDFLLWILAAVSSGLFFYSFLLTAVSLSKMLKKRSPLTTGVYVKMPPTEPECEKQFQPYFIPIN
Procedure: CTLA-4 effector cells were incubated with aAPC/Raji Cells in the absence or presence of increasing concentrations of anti-CTLA-4 antibody (positive control), RLS-0127*, RLS-0130, RLS-0156, RLS-0170 and RLS-0174. Luminescence was detected in luminometer plate reader.
To assess if PIC1 peptides could block CTLA-4 inhibitory activity in a cell-based assay, select peptides were screened in the CTLA-4 Blockade Bioassay (Promega). This bioluminescent cell-based assay is used to measure the potency and stability of molecules targeting CTLA-4 and consists of two genetically engineered cell lines: CTLA-4 effector cells: Jurkat T cells expressing human CTLA-4 and a luciferase reporter driven by a native promoter which responds to TCR/CD28 activation and aAPC/Raji Cells: Raji cells expressing an engineered cell surface protein designed to activate cognate TCRs in an antigen-independent manner and endogenously expressing CTLA-4 ligands CD80 and CD86. When the two cell types are co-cultured, CTLA-4 competes with CD28 for their shared ligands, CD80 and CD86 and thus inhibits CD28 pathway activation and promoter-mediated luminescence. Addition of a molecule that blocks the interaction of CTLA-4 with its ligands CD80 and CD86 results in promoter-mediated luminescence.

Molecule | inhibition of complement activation in vitro, dose response [1] | inhibition of MPO peroxidase activity (TMB oxidation), dose response (MPO) | inhibitory activity in CTLA-4 blockade bioassay (luminescence) (CTLA-4) | inhibition of ABO incompatible hemolysis compared to PA-I8Sar ([1]; peptide 0.8 mg/ml (~0.5 mM)) | MPO inhibition compared with PA-I8Sar (MPO; half-maximal values from dose-response curves)
IALILEP(Sar)dCCQERRA (IALILEP[Sar][dC]CQERRA; cysteine pairing not given here) [RLS-0127*] | dose-dependently inhibited complement activation; also recorded: very similar levels of inhibition to the positive control; also recorded: inhibit complement activation | dose-dependently inhibited TMB oxidation; also recorded: inhibit complement activation and MPO peroxidase activity | showed inhibitory activity; also recorded: able to inhibit CTLA-4 mediated cell signaling | – | –
CC[C@H](C)[C@H](N)C(=O)N[C@@H](C)C(=O)N[C@@H](CC(C)C)C(=O)N[C@H](C(=O)N[C@@H](CC(C)C)C(=O)N[C@@H](CCC(=O)O)C(=O)N1CCC[C@H]1C(=O)N(C)CC(=O)N[C@@H](CS)C(=O)N[C@@]1(C)CCCC=CCCC[C@@](C)(C(=O)N[C@@H](C)C(=O)O)NC(=O)[C@H](CCCNC(=N)N)NC(=O)[C@H](CCC(=O)O)NC(=O)[C@H](CCC(N)=O)NC1=O)[C@@H](C)CC [PA-0117, IALILEP(Sar)CS5QERS5A] (H-IALILEP[Sar]C[S5]QER[S5]A-OH; staple 10-14) | – | – | did not | – | –
IALILEP(Sar)CCQERA (IALILEP[Sar]CCQERA; cysteine pairing not given here) [RLS-0133*] | dose-dependently inhibited complement activation; also recorded: inhibit complement activation | dose-dependently inhibited TMB oxidation; also recorded: inhibit complement activation and MPO peroxidase activity | did not | – | –
CC[C@H](C)[C@H](N)C(=O)N[C@]1(C)CCCCCCC=CCCC[C@@](C)(C(=O)N[C@@H](CS)C(=O)N[C@@H](CCC(N)=O)C(=O)N[C@@H](CCC(=O)O)C(=O)N[C@@H](CCCNC(=N)N)C(=O)N[C@@H](C)C(=O)N[C@@H](C)C(=O)O)NC(=O)CN(C)C(=O)[C@@H]2CCCN2C(=O)[C@H](CCC(=O)O)NC(=O)[C@H](CC(C)C)NC(=O)[C@H]([C@@H](C)CC)NC(=O)[C@H](CC(C)C)NC1=O [PA-0115, IR8LILEP(Sar)S5CQERAA] (H-I[R8]LILEP[Sar][S5]CQERAA-OH; staple 2-9) | – | – | did not | enhanced activity | enhanced activity
